The NIST ThermoML archive (doi:10.1021/je900050z)
Values joined by “and” are separate entries in the source; they are usually repeats but may differ in a detail not shown here. Equal entries are not always repeated. ± gives the expanded uncertainty stated by the source.

Settings: Liquid

CCCCCCO [hexan-1-ol]
Settings | vapor or sublimation pressure [kPa]
343.46 K | 2.04 ± 0.17
344.2 K | 2.16 ± 0.18
344.6 K | 2.23 ± 0.18
345.36 K | 2.35 ± 0.19
346.17 K | 2.47 ± 0.2
347.27 K | 2.67 ± 0.22
348.1 K | 2.79 ± 0.23
348.35 K | 2.85 ± 0.23
349.38 K | 3.04 ± 0.25
349.75 K | 3.11 ± 0.25
350.75 K | 3.32 ± 0.27
351.39 K | 3.44 ± 0.28
352.2 K | 3.64 ± 0.29
352.63 K | 3.73 ± 0.3
353 K | 3.83 ± 0.31
353.31 K | 3.89 ± 0.31
353.82 K | 3.96 ± 0.32
355.2 K | 4.31 ± 0.35
357.01 K | 4.79 ± 0.38
358.22 K | 5.15 ± 0.41
359.43 K | 5.51 ± 0.44
360.34 K | 5.79 ± 0.46
361.12 K | 6.04 ± 0.48
361.86 K | 6.29 ± 0.5
363.85 K | 6.99 ± 0.56
364.61 K | 7.27 ± 0.58
365.58 K | 7.64 ± 0.61
366.3 K | 7.92 ± 0.63
367.44 K | 8.4 ± 0.67
368.05 K | 8.67 ± 0.69
368.99 K | 9.08 ± 0.73
369.67 K | 9.4 ± 0.75
370.24 K | 9.67 ± 0.77
370.83 K | 9.95 ± 0.8
371.45 K | 10.27 ± 0.82
372.1 K | 10.59 ± 0.85
373 K | 11.05 ± 0.88
373.67 K | 11.43 ± 0.92
374.19 K | 11.73 ± 0.94
375.14 K | 12.27 ± 0.98
375.93 K | 12.73 ± 1
376.59 K | 13.15 ± 1.1
377.22 K | 13.53 ± 1.1
377.83 K | 13.71 ± 1.1
378.01 K | 13.85 ± 1.1
378.37 K | 14.15 ± 1.1
378.72 K | 14.4 ± 1.1
379.1 K | 14.65 ± 1.2
379.46 K | 14.91 ± 1.2
379.75 K | 15.12 ± 1.2
380.06 K | 15.37 ± 1.2
380.41 K | 15.61 ± 1.2
380.87 K | 15.95 ± 1.3
381.15 K | 16.15 ± 1.3
381.45 K | 16.37 ± 1.3
381.89 K | 16.71 ± 1.3
382.25 K | 16.97 ± 1.4
382.56 K | 17.21 ± 1.4
382.85 K | 17.44 ± 1.4
383.18 K | 17.69 ± 1.4
383.34 K | 17.84 ± 1.4
383.67 K | 18.09 ± 1.4
384.08 K | 18.43 ± 1.5
384.87 K | 19.05 ± 1.5
385.37 K | 19.47 ± 1.6
385.86 K | 19.91 ± 1.6
386.31 K | 20.31 ± 1.6
386.83 K | 20.79 ± 1.7
387.23 K | 21.15 ± 1.7
387.62 K | 21.48 ± 1.7
388.1 K | 21.91 ± 1.8
388.59 K | 22.37 ± 1.8
389.05 K | 22.79 ± 1.8
389.48 K | 23.2 ± 1.9
389.89 K | 23.6 ± 1.9
390.23 K | 23.95 ± 1.9
390.65 K | 24.36 ± 1.9
390.93 K | 24.67 ± 2
391.4 K | 25.13 ± 2
391.75 K | 25.51 ± 2
392.06 K | 25.83 ± 2.1
392.51 K | 26.31 ± 2.1
392.77 K | 26.59 ± 2.1
393.14 K | 27 ± 2.2

CCCC(C)O (stereo not given) [pentan-2-ol]
Settings | vapor or sublimation pressure
323.84 K | 4.16 ± 0.34 kPa
324.19 K | 4.41 ± 0.36 kPa
324.55 K | 4.39 ± 0.36 kPa
325.09 K | 4.67 ± 0.38 kPa
326 K | 4.93 ± 0.4 kPa
326.22 K | 4.89 ± 0.4 kPa
326.99 K | 5.27 ± 0.43 kPa
327.15 K | 5.2 ± 0.42 kPa
327.64 K | 5.43 ± 0.44 kPa
328.19 K | 5.71 ± 0.46 kPa
328.23 K | 5.64 ± 0.46 kPa
329.05 K | 5.91 ± 0.48 kPa
329.11 K | 5.95 ± 0.48 kPa and 6.04 ± 0.49 kPa
329.66 K | 6.16 ± 0.5 kPa
329.9 K | 6.33 ± 0.51 kPa
330.86 K | 6.71 ± 0.54 kPa
331.78 K | 7.08 ± 0.57 kPa
332.29 K | 7.17 ± 0.58 kPa
332.55 K | 7.4 ± 0.6 kPa
332.61 K | 7.31 ± 0.59 kPa
332.92 K | 7.43 ± 0.6 kPa
333.15 K | 7.52 ± 0.6 kPa
333.37 K | 7.76 ± 0.62 kPa
333.88 K | 7.99 ± 0.64 kPa
334.61 K | 8.33 ± 0.67 kPa
335.52 K | 8.77 ± 0.7 kPa
336.34 K | 9.17 ± 0.74 kPa
336.37 K | 9.19 ± 0.74 kPa
337.2 K | 9.59 ± 0.77 kPa
337.85 K | 9.95 ± 0.8 kPa
338.74 K | 10.43 ± 0.84 kPa
339.44 K | 10.81 ± 0.87 kPa
340.1 K | 11.21 ± 0.9 kPa
340.82 K | 11.67 ± 0.94 kPa
341.54 K | 12.11 ± 0.97 kPa
342.2 K | 12.52 ± 1 kPa
342.83 K | 12.77 ± 1 kPa
342.88 K | 12.97 ± 1 kPa
343.15 K | 13 ± 1 kPa
343.26 K | 13.07 ± 1.1 kPa
343.3 K | 13.11 ± 1.1 kPa
343.38 K | 13.16 ± 1.1 kPa
344.38 K | 13.99 ± 1.1 kPa
345.27 K | 14.65 ± 1.2 kPa
346.15 K | 15.31 ± 1.2 kPa
347.02 K | 15.96 ± 1.3 kPa
347.8 K | 16.63 ± 1.3 kPa
348.68 K | 17.32 ± 1.4 kPa
349.38 K | 17.95 ± 1.4 kPa
350.16 K | 18.63 ± 1.5 kPa
350.93 K | 19.31 ± 1.6 kPa
351.64 K | 19.96 ± 1.6 kPa
351.88 K | 20 ± 1.6 kPa
352.33 K | 20.43 ± 1.6 kPa
352.6 K | 20.65 ± 1.6 kPa
352.7 K | 20.72 ± 1.7 kPa
352.76 K | 20.83 ± 1.7 kPa
352.89 K | 20.96 ± 1.7 kPa
353.05 K | 21.12 ± 1.7 kPa
353.1 K | 21.19 ± 1.7 kPa
353.15 K | 21.2 ± 1.7 kPa
353.35 K | 21.4 ± 1.7 kPa
354.12 K | 22.16 ± 1.8 kPa
354.72 K | 22.83 ± 1.8 kPa
355.42 K | 23.55 ± 1.9 kPa
355.92 K | 24.12 ± 1.9 kPa
356.39 K | 24.44 ± 2 kPa
356.55 K | 24.84 ± 2 kPa
357.15 K | 25.47 ± 2 kPa
357.76 K | 26.2 ± 2.1 kPa
357.79 K | 26 ± 2.1 kPa
358.23 K | 26.75 ± 2.1 kPa
358.83 K | 27.45 ± 2.2 kPa
358.88 K | 27.32 ± 2.2 kPa
359.01 K | 27.45 ± 2.2 kPa
359.53 K | 28.19 ± 2.3 kPa
359.91 K | 28.67 ± 2.3 kPa
360.35 K | 29.25 ± 2.3 kPa
360.5 K | 29.41 ± 2.4 kPa
361.12 K | 30.29 ± 2.4 kPa
361.45 K | 30.68 ± 2.5 kPa
362.1 K | 31.59 ± 2.5 kPa
362.5 K | 32.13 ± 2.6 kPa
362.93 K | 32.73 ± 2.6 kPa
363.38 K | 33.35 ± 2.7 kPa
363.85 K | 34.05 ± 2.7 kPa
364.28 K | 34.64 ± 2.8 kPa
364.84 K | 35.47 ± 2.8 kPa
365.13 K | 35.95 ± 2.9 kPa
365.62 K | 36.71 ± 2.9 kPa
366.01 K | 37.32 ± 3 kPa
366.4 K | 37.95 ± 3 kPa
366.86 K | 38.64 ± 3.1 kPa
367.24 K | 39.31 ± 3.1 kPa
367.65 K | 39.97 ± 3.2 kPa
368.06 K | 40.64 ± 3.2 kPa
368.44 K | 41.27 ± 3.3 kPa
368.85 K | 41.96 ± 3.4 kPa
369.31 K | 42.73 ± 3.4 kPa
369.58 K | 43.23 ± 3.5 kPa
370.05 K | 44.05 ± 3.5 kPa
370.46 K | 44.75 ± 3.6 kPa
370.74 K | 45.4 ± 3.6 kPa
371.07 K | 45.91 ± 3.7 kPa
371.47 K | 46.64 ± 3.7 kPa
371.82 K | 47.45 ± 3.8 kPa
372.15 K | 47.93 ± 3.8 kPa
372.5 K | 48.64 ± 3.9 kPa
372.91 K | 49.31 ± 4 kPa
373.16 K | 49.87 ± 4 kPa
373.57 K | 50.71 ± 4.1 kPa
373.88 K | 51.25 ± 4.1 kPa
374.25 K | 52.03 ± 4.2 kPa
374.47 K | 52.55 ± 4.2 kPa
374.85 K | 53.37 ± 4.3 kPa
375.14 K | 53.95 ± 4.3 kPa
375.44 K | 54.67 ± 4.4 kPa
375.83 K | 55.37 ± 4.4 kPa
376.13 K | 56.01 ± 4.5 kPa
376.47 K | 56.71 ± 4.5 kPa
376.74 K | 57.36 ± 4.6 kPa
377.07 K | 58 ± 4.6 kPa
377.32 K | 58.64 ± 4.7 kPa
377.65 K | 59.32 ± 4.8 kPa
377.91 K | 59.97 ± 4.8 kPa
378.22 K | 60.67 ± 4.8 kPa
378.56 K | 61.4 ± 4.9 kPa
378.81 K | 61.97 ± 5 kPa
379.04 K | 62.61 ± 5 kPa
379.39 K | 63.39 ± 5.1 kPa
379.6 K | 63.91 ± 5.1 kPa
379.89 K | 64.6 ± 5.2 kPa
380.13 K | 65.2 ± 5.2 kPa
380.47 K | 65.99 ± 5.3 kPa
380.7 K | 66.63 ± 5.3 kPa
381 K | 67.31 ± 5.4 kPa
381.26 K | 68.01 ± 5.4 kPa
381.53 K | 68.67 ± 5.5 kPa
381.76 K | 69.31 ± 5.5 kPa
382.08 K | 70.21 ± 5.6 kPa
382.28 K | 70.63 ± 5.7 kPa
382.55 K | 71.31 ± 5.7 kPa
382.78 K | 71.95 ± 5.8 kPa
383.05 K | 72.65 ± 5.8 kPa
383.29 K | 73.35 ± 5.9 kPa
383.53 K | 73.93 ± 5.9 kPa
383.76 K | 74.63 ± 6 kPa
384.09 K | 75.48 ± 6 kPa
384.26 K | 75.99 ± 6.1 kPa
384.5 K | 76.63 ± 6.1 kPa
384.74 K | 77.35 ± 6.2 kPa
384.95 K | 77.93 ± 6.2 kPa
385.42 K | 79.27 ± 6.3 kPa
385.65 K | 80 ± 6.4 kPa
385.87 K | 80.56 ± 6.5 kPa
386.24 K | 81.79 ± 6.5 kPa
386.32 K | 81.88 ± 6.5 kPa
386.54 K | 82.68 ± 6.6 kPa
386.76 K | 83.23 ± 6.7 kPa
386.96 K | 84.05 ± 6.7 kPa
387.37 K | 85.27 ± 6.8 kPa
387.8 K | 86.61 ± 6.9 kPa
388.23 K | 88 ± 7 kPa
388.66 K | 89.39 ± 7.2 kPa
389.07 K | 90.69 ± 7.3 kPa
389.51 K | 92.16 ± 7.4 kPa
389.9 K | 93.44 ± 7.5 kPa
390.26 K | 94.61 ± 7.6 kPa
390.65 K | 95.95 ± 7.7 kPa
391.05 K | 97.27 ± 7.8 kPa
391.46 K | 98.71 ± 7.9 kPa
